≈ marks a conversion by molar mass, not a printed value. Read-outs that look alike come from different tables or passages of the source.
How the values were obtained:
Format in all cases: cell-based
[1] = test system: K. pneumoniae ATCC 13883 wild type and mutants; assay: MIC, wild type and GSK2251052 resistant mutants; conditions: for MIC: Klebsiella pneumoniae
Procedure: (§1) Spontaneous Resistance Frequency was determined in vitro for GSK2251052 and the resistance mutants in E. coli ATCC 25922, K. pneumoniae ATCC 13883, and P. aeruginosa ATCC 27853 strains were characterized. GSK2251052 was prepared as described in U.S. Pat. No. 7,816,344 (the entire contents of which are hereby incorporated by reference herein). LB broth, Mueller Hinton II broth (adjusted), and Difco noble agar were obtained from Becton Dickinson (Cockeysville, Md., USA). M9 minimal broth containing 1×M9 salt, 0.5 μg/ML thiamine, 1 mM MgSO4, 0.1 mM CaCl2, 2% glucose, was obtained from Teknova (Hollister, Calif., USA). Antibacterial agents ciprofloxacin, ceftazidime, chloramphenicol, gentamycin, kanamycin, polymixin B, tobramycin and trimethoprim, and amino acids were obtained from Sigma Chemicals (St. Louis, Mo., USA). Strains were obtained from ATCC (Manassas, Va., USA).
(§2) Susceptibility tests were performed following the recommendations for aerobic bacteria (M7-A7) from the Clinical and Laboratories Standards Institute (CLSI).
(§3) Laboratory generated mutants resistant to GSK2251052 contain mutations in the editing domain of LeuRS. Six to ten GSK2251052 resistant colonies of E. coli ATCC 25922, K. pneumoniae ATCC 13883 and P. aeruginosa ATCC 27853 were selected for further analysis and their MICs to GSK2251052 were determined (Table 4-7).

[2] = test system: E. coli ATCC 25922 wild type and mutants; assay: MIC, wild type and GSK2251052 resistant mutants; conditions: for MIC: Escherichia coli
Procedure: as §1, §2, §3

[3] = test system: P. aeruginosa ATCC 27853 wild type and mutants; assay: MIC, wild type and GSK2251052 resistant mutants; conditions: for MIC: Pseudomonas aeruginosa
Procedure: as §1, §2, §3

E. coli (WT) = assay: microbe, parasite or virus in culture; conditions: E. coli (WT); for MIC90: 214 isolates
[4] = test system: Enterobacter cloacae (WT); assay: microbe, parasite or virus in culture; conditions: for MIC90: 202 isolates
Enterobacteriaceae = assay: organism not typed; conditions: Enterobacteriaceae; for MIC90: 2029 isolates
Klebsiella spp. (KPC) = assay: microbe, parasite or virus in culture; conditions: Klebsiella spp. (KPC); for MIC90: 26 isolates
Providencia spp.(all) = assay: microbe, parasite or virus in culture; conditions: Providencia spp.(all); for MIC90: 68 isolates
[5] = test system: Enterobacter cloacae (AmpC); assay: microbe, parasite or virus in culture; conditions: Enterobacter cloacae (AmpC); for MIC90: 50 isolates
[6] = test system: Morganella morganii (AmpC); assay: microbe, parasite or virus in culture; conditions: Morganella morganii (AmpC); for MIC90: 18 isolates
[7] = test system: Enterobacter aerogenes (WT); assay: microbe, parasite or virus in culture; conditions: Enterobacter aerogenes (WT); for MIC90: 199 isolates
E. coli (ESBL) = assay: microbe, parasite or virus in culture; conditions: E. coli (ESBL); for MIC90: 27 isolates
Klebsiella spp. (WT) = assay: microbe, parasite or virus in culture; conditions: Klebsiella spp. (WT); for MIC90: 159 isolates
S. marcescens (AmpC) = assay: microbe, parasite or virus in culture; conditions: S. marcescens (AmpC); for MIC90: 26 isolates
[8] = test system: Citrobacter freundii (AmpC); assay: microbe, parasite or virus in culture; conditions: Citrobacter freundii (AmpC); for MIC90: 60 isolates
[9] = test system: Enterobacter aerogenes (AmpC); assay: microbe, parasite or virus in culture; conditions: Enterobacter aerogenes (AmpC); for MIC90: 51 isolates
[10] = test system: E. coli ATCC 25922, K. pneumoniae ATCC 13883 and P. aeruginosa ATCC 27853; assay: MIC, three strains and their mutants summarised; conditions: MIC in E. coli, P. aeruginosa and K. pneumoniae mutants versus wild-type
Procedure: as §1, §2, §3
GSK2251052 resistant mutants were not cross-resistant to commercial antibiotics.

Proteus mirabilis (WT) = assay: microbe, parasite or virus in culture; conditions: Proteus mirabilis (WT); for MIC90: 235 isolates
Proteus vulgaris (WT) = assay: microbe, parasite or virus in culture; conditions: Proteus vulgaris (WT); for MIC90: 41 isolates
Klebsiella spp. (ESBL) = assay: microbe, parasite or virus in culture; conditions: Klebsiella spp. (ESBL); for MIC90: 71 isolates
E. coli ATCC 25922 = assay: Spontaneous frequency of resistance; conditions: 24 h
Procedure: as §1
(§4) Selection of resistance to GSK2251052 was attempted by spreading various amounts of bacteria onto MHBII noble agar plates containing 4×MIC (minimum inhibitory concentration) or 10×MIC of GSK2251052. Colonies were counted after 24 hours and 48 hours incubation at 37° C. The resistance of these colonies was confirmed by their ability to grow on plates containing GSK2251052 at either 4× or 10×MIC. Frequency of resistance was determined by dividing the number of resistant mutants by the total number of cells plated as determined by plating dilutions of the overnight culture on LB plates.

P. aeruginosa ATCC 27853 = assay: Spontaneous frequency of resistance; conditions: 24 h
Procedure: as §1, §4

K. pneumoniae ATCC 13883 = assay: Spontaneous frequency of resistance; conditions: 24 h
Procedure: as §1, §4

## Polymixin B
[1]; K wt.
  MICs: 4 µg/mL
[1]; mutant K 104
  MICs: 8 µg/mL
[1]; mutant K 105
  MICs: 4 µg/mL
[1]; mutant K 107
  MICs: 2 µg/mL
[1]; mutant K 108
  MICs: 4 µg/mL
[1]; mutant K 110
  MICs: 4 µg/mL
[2]; E wt
  MICs: 4 µg/mL
[2]; mutant E 101
  MICs: 4 µg/mL
[2]; mutant E 102
  MICs: 4 µg/mL
[2]; mutant E 107
  MICs: 4 µg/mL
[3]; P wt.
  MICs: 4 µg/mL
[3]; mutant P 101
  MICs: 4 µg/mL
[3]; mutant P106
  MICs: 2 µg/mL
[3]; mutant P108
  MICs: 4 µg/mL
E. coli (WT)
  MIC90: 1 µg/mL
E. coli (WT); polymixinB criteria
  susceptibility category of MIC90: * (susceptible ≦2 μg/mL)
[4]
  MIC90: > 8 µg/mL
[4]; polymixinB criteria
  susceptibility category of MIC90: *** (resistant ≧8 μg/mL)
Enterobacteriaceae
  MIC90: > 8 µg/mL
Enterobacteriaceae; polymixinB criteria
  susceptibility category of MIC90: *** (resistant ≧8 μg/mL)
Klebsiella spp. (KPC)
  MIC90: > 8 µg/mL
Klebsiella spp. (KPC); polymixinB criteria
  susceptibility category of MIC90: *** (resistant ≧8 μg/mL)
Providencia spp.(all)
  MIC90: 8 µg/mL
Providencia spp.(all); polymixinB criteria
  susceptibility category of MIC90: *** (resistant ≧8 μg/mL)
[5]
  MIC90: 4 µg/mL
[5]; polymixinB criteria
  susceptibility category of MIC90: ** (intermediate 4 μg/mL)
[6]
  MIC90: > 8 µg/mL
[6]; polymixinB criteria
  susceptibility category of MIC90: *** (resistant ≧8 μg/mL)
[7]
  MIC90: 4 µg/mL
[7]; polymixinB criteria
  susceptibility category of MIC90: ** (intermediate 4 μg/mL)
E. coli (ESBL)
  MIC90: 2 µg/mL
E. coli (ESBL); polymixinB criteria
  susceptibility category of MIC90: * (susceptible ≦2 μg/mL)
Klebsiella spp. (WT)
  MIC90: 1 µg/mL
Klebsiella spp. (WT); polymixinB criteria
  susceptibility category of MIC90: * (susceptible ≦2 μg/mL)
S. marcescens (AmpC)
  MIC90: > 8 µg/mL
S. marcescens (AmpC); polymixinB criteria
  susceptibility category of MIC90: *** (resistant ≧8 μg/mL)
[8]
  MIC90: 1 µg/mL
[8]; polymixinB criteria
  susceptibility category of MIC90: * (susceptible ≦2 μg/mL)
[9]
  MIC90: 2 µg/mL
[9]; polymixinB criteria
  susceptibility category of MIC90: * (susceptible ≦2 μg/mL)
[10]
  cross-resistance of GSK2251052 resistant mutants: did not have any significant difference in MIC values than wild-type
Proteus mirabilis (WT)
  MIC90: > 8 µg/mL
Proteus mirabilis (WT); polymixinB criteria
  susceptibility category of MIC90: *** (resistant ≧8 μg/mL)
Proteus vulgaris (WT)
  MIC90: > 8 µg/mL
Proteus vulgaris (WT); polymixinB criteria
  susceptibility category of MIC90: *** (resistant ≧8 μg/mL)
Klebsiella spp. (ESBL)
  MIC90: 2 µg/mL
Klebsiella spp. (ESBL); polymixinB criteria
  susceptibility category of MIC90: * (susceptible ≦2 μg/mL)

## Gentamicin
[1]; K wt.
  MICs: 1 µg/mL
[1]; mutant K 104
  MICs: 1 µg/mL
[1]; mutant K 105
  MICs: 1 µg/mL
[1]; mutant K 107
  MICs: 1 µg/mL
[1]; mutant K 108
  MICs: 0.5 µg/mL
[1]; mutant K 110
  MICs: 1 µg/mL
[2]; E wt
  MICs: 2 µg/mL
[2]; mutant E 101
  MICs: 1 µg/mL
[2]; mutant E 102
  MICs: 1 µg/mL
[2]; mutant E 107
  MICs: 1 µg/mL
[3]; P wt.
  MICs: 8 µg/mL
[3]; mutant P 101
  MICs: 4 µg/mL
[3]; mutant P106
  MICs: 4 µg/mL
[3]; mutant P108
  MICs: 4 µg/mL
E. coli (WT)
  MIC90: > 16 µg/mL
[4]
  MIC90: 1 µg/mL
Enterobacteriaceae
  MIC90: 16 µg/mL
Klebsiella spp. (KPC)
  MIC90: 16 µg/mL
Providencia spp.(all)
  MIC90: > 16 µg/mL
[5]
  MIC90: > 16 µg/mL
[6]
  MIC90: > 16 µg/mL
[7]
  MIC90: 1 µg/mL
E. coli (ESBL)
  MIC90: > 16 µg/mL
Klebsiella spp. (WT)
  MIC90: 1 µg/mL
S. marcescens (AmpC)
  MIC90: > 16 µg/mL
[8]
  MIC90: > 16 µg/mL
[9]
  MIC90: 4 µg/mL
[10]
  cross-resistance of GSK2251052 resistant mutants: did not have any significant difference in MIC values than wild-type
Proteus mirabilis (WT)
  MIC90: 4 µg/mL
Proteus vulgaris (WT)
  MIC90: 2 µg/mL
Klebsiella spp. (ESBL)
  MIC90: > 16 µg/mL

## NC[C@H]1O[C@H](O[C@H]2[C@H](O)[C@@H](O[C@H]3O[C@H](CO)[C@@H](O)[C@H](N)[C@H]3O)[C@H](N)C[C@@H]2N)[C@H](N)C[C@@H]1O [Tobramycin]
[1]; ATCC13883, K wt., read-out: MICs
  MIC: 0.5 µg/mL (≈ 1.07 µM)
[1]; ATCC13883, read-out: MICs, mutant K 104
  MIC: 0.5 µg/mL (≈ 1.07 µM)
[1]; ATCC13883, read-out: MICs, mutant K 105
  MIC: 0.5 µg/mL (≈ 1.07 µM)
[1]; ATCC13883, read-out: MICs, mutant K 107
  MIC: 0.5 µg/mL (≈ 1.07 µM)
[1]; ATCC13883, read-out: MICs, mutant K 108
  MIC: 0.5 µg/mL (≈ 1.07 µM)
[1]; ATCC13883, read-out: MICs, mutant K 110
  MIC: 0.5 µg/mL (≈ 1.07 µM)
[2]; ATCC25922, E wt, read-out: MICs
  MIC: 1 µg/mL (≈ 2.14 µM)
[2]; ATCC25922, read-out: MICs, mutant E 101
  MIC: 1 µg/mL (≈ 2.14 µM)
[2]; ATCC25922, read-out: MICs, mutant E 102
  MIC: 2 µg/mL (≈ 4.28 µM)
[2]; ATCC25922, read-out: MICs, mutant E 107
  MIC: 1 µg/mL (≈ 2.14 µM)
[3]; ATCC27853, P wt., read-out: MICs
  MIC: 0.5 µg/mL (≈ 1.07 µM)
[3]; ATCC27853, read-out: MICs, mutant P 101
  MIC: 0.5 µg/mL (≈ 1.07 µM)
[3]; ATCC27853, read-out: MICs, mutant P106
  MIC: 0.5 µg/mL (≈ 1.07 µM)
[3]; ATCC27853, read-out: MICs, mutant P108
  MIC: 0.5 µg/mL (≈ 1.07 µM)
E. coli ATCC 25922; 4 X MIC
  Frequency of Resistance: 1 × 10^−5
E. coli ATCC 25922; 10 X MIC
  Frequency of Resistance: 4 × 10^−6
P. aeruginosa ATCC 27853; 4 X MIC
  Frequency of Resistance: 1 × 10^−6
P. aeruginosa ATCC 27853; 10 X MIC
  Frequency of Resistance: 9 × 10^−8
K. pneumoniae ATCC 13883; 4 X MIC
  Frequency of Resistance: 1 × 10^−6
K. pneumoniae ATCC 13883; 10 X MIC
  Frequency of Resistance: 5 × 10^−8
[10]
  cross-resistance of GSK2251052 resistant mutants: did not have any significant difference in MIC values than wild-type

From patent US9889146B2, “Benzoxaborole compounds and uses thereof” (priority 2012, dated 2018)
